Each structure is given as a SMILES string.

Here are results for 20 compounds from patent publication US9200005B2, “Inhibitor compounds of phosphodiesterase type 10A” (AbbVie Deutschland GmbH & Co. KG, priority 2013, dated 2015).

A short description of series [1]: Determination of the microsomal half-life / microsomal clearance, rat liver microsomes. It counts as in vitro ADME. The note with it: 0.5 μM test substance, 0.25 mg of microsomal protein/mL, NADPH, 37° C. How it is done:
(§1) b) Determination of the Microsomal Half-Life:
(§2) The metabolic stability of the compounds of the invention was determined in the following assay.
(§3) The test substances were incubated in a concentration of 0.5 μM as follows:
(§4) 0.5 μM test substance are preincubated together with liver microsomes from different species (from rat, human or other species) (0.25 mg of microsomal protein/mL) in 0.05 M potassium phosphate buffer of pH 7.4 in microtiter plates at 37° C. for 5 min. The reaction is started by adding NADPH (1 mg/mL). After 0, 5, 10, 15, 20 and 30 min, 50 μl aliquots are removed, and the reaction is immediately stopped and cooled with the same volume of acetonitrile. The samples are frozen until analyzed. The remaining concentration of undegraded test substance is determined by MSMS. The half-life (T½) is determined from the gradient of the signal of test substance/unit time plot, it being possible to calculate the half-life of the test substance, assuming first order kinetics, from the decrease in the concentration of the compound with time. The microsomal clearance (mCl) is calculated from mCl=ln 2/T½/(content of microsomal protein in mg/mL)×1000 [mL/min/mg] (modified from references: Di, The Society for Biomoleculur Screening, 2003, 453-462; Obach, DMD, 1999 vol 27. N 11, 1350-1359).

Series [2] in a line: Determination of the microsomal half-life / microsomal clearance, human liver microsomes. It counts as in vitro ADME. The note with it: 0.5 μM test substance, 0.25 mg of microsomal protein/mL, NADPH, 37° C. As to the method:
as §1, §2, §3, §4
(Microsomes from liver hold many membrane-bound enzymes, among them those of drug oxidation.)

On to `O=c1c2c(-c3ccncc3)csc2c(-c2ccncc2)nn1CC1CCCO1` (stereo not shown) [Example 141, 3,7-di(pyridin-4-yl)-5-(tetrahydrofuran-2-ylmethyl)thieno[2,3-d]pyridazin-4(5H)-one], for which the “Rat mCl” value in series [1] is reported as “++ (++: <100 μl min^−1 mg^−1)”. Also, in series [2], the “Human mCl” value is “+ (+: 100-220 μl min^−1 mg^−1)”.
Consider `Cn1nc(-c2ccncc2)c2scc(-c3cccc(F)c3)c2c1=O.O=C(O)C(F)(F)F` [Example 31, 3-(3-fluorophenyl)-5-methyl-7-(pyridin-4-yl)thieno[2,3-d]pyridazin-4(5H)-one trifluoroacetate], for which the “Rat mCl” value in series [1] is given as “++ (++: <100 μl min^−1 mg^−1)”. Moreover, the “Human mCl” value in series [2] is recorded as “+ (+: 100-220 μl min^−1 mg^−1)”.
As for `Cn1nc(-c2ccncc2)c2scc(-c3ccc(C(=O)NC4CC4)cc3)c2c1=O.O=C(O)C(F)(F)F` [Example 40, N-cyclopropyl-4-[5-methyl-4-oxo-7-(pyridin-4-yl)-4,5-dihydrothieno[2,3-d]pyridazin-3-yl]benzamide trifluoroacetate], in series [1], the “Rat mCl” value is reported as “++ (++: <100 μl min^−1 mg^−1)”. The “Human mCl” value in series [2] is “++ (++: <100 μl min^−1 mg^−1)”.
For `O=c1c2c(-c3ccncc3)csc2c(-c2ccncc2)nn1C1CCCC1` [Example 134, 5-cyclopentyl-3,7-di(pyridin-4-yl)thieno[2,3-d]pyridazin-4(5H)-one], the “Rat mCl” value in series [1] is reported as “+ (+: 100-220 μl min^−1 mg^−1)”. Also, the “Human mCl” value in series [2] is given as “∘ (∘ not avialable or >220 μl min^−1 mg^−1)”.
As to `CC(C)(C)n1nc(-c2ccncc2)c2scc(-c3ccncc3)c2c1=O` [Example 132, 5-tert-butyl-3,7-di(pyridin-4-yl)thieno[2,3-d]pyridazin-4(5H)-one], the “Rat mCl” value in series [1] is listed as “++ (++: <100 μl min^−1 mg^−1)”. For the same compound, the “Human mCl” value in series [2] is given as “+ (+: 100-220 μl min^−1 mg^−1)”.
As for `Cn1nc(-c2ccncc2)c2scc(-c3ccc4c(c3)CCO4)c2c1=O.O=C(O)C(F)(F)F` [Example 35, 3-(2,3-dihydro-1-benzofuran-5-yl)-5-methyl-7-(pyridin-4-yl)thieno[2,3-d]pyridazin-4(5H)-one trifluoroacetate], in series [1], the “Rat mCl” value is recorded as “+ (+: 100-220 μl min^−1 mg^−1)”. The “Human mCl” value in series [2] is “+ (+: 100-220 μl min^−1 mg^−1)”.
For `Cn1nc(-c2ccncc2)c2scc(CN3CCOCC3)c2c1=O` [Example 13, 5-methyl-3-(morpholin-4-ylmethyl)-7-(pyridin-4-yl)thieno[2,3-d]pyridazin-4(5H)-one], in series [1], the “Rat mCl” value is “+ (+: 100-220 μl min^−1 mg^−1)”. Also, the “Human mCl” value in series [2] is given as “+ (+: 100-220 μl min^−1 mg^−1)”.
For the compound `Cn1nc(-c2ccncc2)c2scc(-c3cccnc3)c2c1=O.O=C(O)C(F)(F)F` [Example 15, 5-methyl-3-(pyridin-3-yl)-7-(pyridin-4-yl)thieno[2,3-d]pyridazin-4(5H)-one bis(trifluoroacetate)], the “Rat mCl” value in series [1] (bis(trifluoroacetate)) was “∘ (∘ not avialable or >220 μl min^−1 mg^−1)”. In addition, the “Human mCl” value in series [2] is on record as “++ (++: <100 μl min^−1 mg^−1)”.
Regarding `Cn1nc(-c2ccncc2)c2scc(-c3cc4ccccc4s3)c2c1=O.O=C(O)C(F)(F)F` [Example 23, 3-(1-benzothiophen-2-yl)-5-methyl-7-(pyridin-4-yl)thieno[2,3-d]pyridazin-4(5H)-one trifluoroacetate], the “Rat mCl” value in series [1] is listed as “+ (+: 100-220 μl min^−1 mg^−1)”. In series [2], the “Human mCl” value is given as “+ (+: 100-220 μl min^−1 mg^−1)”.
With `Cn1nc(-c2ccncc2)c2scc(N3CCC(O)CC3)c2c1=O` [Example 4, 3-(4-hydroxypiperidin-1-yl)-5-methyl-7-(pyridin-4-yl)thieno[2,3-d]pyridazin-4(5H)-one], the “Rat mCl” value in series [1] is “++ (++: <100 μl min^−1 mg^−1)”. Moreover, the “Human mCl” value in series [2] was “++ (++: <100 μl min^−1 mg^−1)”.
Take `Cn1nc(-c2ccncc2)c2scc(-c3ccsc3)c2c1=O.O=C(O)C(F)(F)F` [Example 34, 5-methyl-7-(pyridin-4-yl)-3-(thiophen-3-yl)thieno[2,3-d]pyridazin-4(5H)-one trifluoroacetate]: the “Rat mCl” value in series [1] is “+ (+: 100-220 μl min^−1 mg^−1)”. For the same compound, in series [2], the “Human mCl” value is recorded as “++ (++: <100 μl min^−1 mg^−1)”.
As to `N#Cc1cccc(-c2csc3c(-c4ccncc4)nn(CC(F)(F)F)c(=O)c23)c1` [Example 129, 3-[4-oxo-7-(pyridin-4-yl)-5-(2,2,2-trifluoroethyl)-4,5-dihydrothieno[2,3-d]pyridazin-3-yl]benzonitrile], the “Rat mCl” value in series [1] is reported as “++ (++: <100 μl min^−1 mg^−1)”. The “Human mCl” value in series [2] is recorded as “++ (++: <100 μl min^−1 mg^−1)”.
Regarding `Cn1nc(OCc2ccc(Cl)c(Cl)c2)c2scc(-c3ccncc3)c2c1=O` [Example 77, 7-[(3,4-dichlorobenzyl)oxy]-5-methyl-3-(pyridin-4-yl)thieno[2,3-d]pyridazin-4(5H)-one], in series [1], the “Rat mCl” value was “++ (++: <100 μl min^−1 mg^−1)”. The “Human mCl” value in series [2] is on record as “+ (+: 100-220 μl min^−1 mg^−1)”.
In the same order, the values of `Cn1nc(-c2ccc(OC(F)(F)F)cc2)c2scc(-c3ccncc3)c2c1=O` [Example 101, 5-methyl-3-(pyridin-4-yl)-7-[4-(trifluoromethoxy)phenyl]thieno[2,3-d]pyridazin-4(5H)-one] are “++ (++: <100 μl min^−1 mg^−1)” and “++ (++: <100 μl min^−1 mg^−1)”.
Regarding `CN1CCN(Cc2cccc(-c3csc4c(-c5ccncc5)nn(C)c(=O)c34)c2)CC1.O=C(O)C(F)(F)F.O=C(O)C(F)(F)F.O=C(O)C(F)(F)F` [Example 42, 5-methyl-3-{3-[(4-methylpiperazin-1-yl)methyl]phenyl}-7-(pyridin-4-yl)thieno[2,3-d]pyridazin-4(5H)-one tris(trifluoroacetate)], the “Rat mCl” value in series [1] is “++ (++: <100 μl min^−1 mg^−1)”. In series [2], the “Human mCl” value is “+ (+: 100-220 μl min^−1 mg^−1)”.
For `COc1ncc(-c2csc3c(-c4ccncc4)nn(C)c(=O)c23)cn1` [Example 10, 3-(2-methoxypyrimidin-5-yl)-5-methyl-7-(pyridin-4-yl)thieno[2,3-d]pyridazin-4(5H)-one] the same measures were “++ (++: <100 μl min^−1 mg^−1)” and “++ (++: <100 μl min^−1 mg^−1)”.
For `Cn1nc(-c2ccncc2)c2scc(-c3ccccc3F)c2c1=O.O=C(O)C(F)(F)F` [Example 36, 3-(2-fluorophenyl)-5-methyl-7-(pyridin-4-yl)thieno[2,3-d]pyridazin-4(5H)-one trifluoroacetate] the same measures were “++ (++: <100 μl min^−1 mg^−1)” and “++ (++: <100 μl min^−1 mg^−1)”.
In the same order, the values of `Cn1nc(OCC2CCN(C(=O)OC(C)(C)C)CC2)c2scc(-c3ccncc3)c2c1=O` [Example 79, tert-butyl 4-({[5-methyl-4-oxo-3-(pyridin-4-yl)-4,5-dihydrothieno[2,3-d]pyridazin-7-yl]oxy}methyl)piperidine-1-carboxylate] are “+ (+: 100-220 μl min^−1 mg^−1)” and “+ (+: 100-220 μl min^−1 mg^−1)”.
Regarding `Cn1nc(-c2ccncc2)c2scc(-c3ccnnc3)c2c1=O` [Example 7, 5-methyl-3-(pyridazin-4-yl)-7-(pyridin-4-yl)thieno[2,3-d]pyridazin-4(5H)-one], in series [1], the “Rat mCl” value is given as “+ (+: 100-220 μl min^−1 mg^−1)”. In addition, in series [2], the “Human mCl” value is “++ (++: <100 μl min^−1 mg^−1)”.
`Cn1nc(OCC2CCCCC2)c2scc(-c3ccncc3)c2c1=O` [Example 57, 7-(cyclohexylmethoxy)-5-methyl-3-(pyridin-4-yl)thieno[2,3-d]pyridazin-4(5H)-one]: the “Rat mCl” value in series [1] is recorded as “+ (+: 100-220 μl min^−1 mg^−1)”. In addition, the “Human mCl” value in series [2] is listed as “+ (+: 100-220 μl min^−1 mg^−1)”.
